Legend:
NLRP3 inflammasome [1] = test: IL-1β release from BMDMs pre-treated, washed, LPS-primed and stimulated with nigericin; type: cell-based, mouse; conditions: for IL-1β release after mitochondrial depolarizing agent: wild type or P2rx7−/− BMDMs, antimycin A 5 μM or FCCP 1 μM 30 min, then LPS 1 μg/ml 4 h, nigericin 10 μM 30 min (FIG. 6d)
Description: FIG. 6. P2X7 receptor stimulation induces an impairment of the NLRP3 inflammasome in monocytes. (a-b) Percentage of monocytes with ASC-specks (a) and release of […] from PBMCs (b) isolated from healthy donor blood samples treated with ATP (3 mM, 30 min; ATP-pre), then washed and primed with or without LPS (1 μg/ml, 2 h) and then treated for 20 min with ATP (3 mM; ATP-post) or nigericin (10 μM) as indicated. (c) IL-1β release from wild type or P2rx7^−/− BMDMs treated as in a, but with 4 h LPS priming and 30 min of ATP or nigericin. (d) IL-1β release from wild type or P2rx7^−/− BMDMs treated for 30 min with antimycin A (5 μM) or FCCP (1 μM) and then washed and primed with LPS (1 μg/ml, 4 h) and then stimulated with nigericin (10 μM, 30 min) as indicated. (e) Expression of Nrlp3 and Illb genes analyzed by quantitative PCR from wild type or P2rx7^−/− BMDMs treated with ATP (3 mM, 30 min; ATP-pre), then washed and primed with or without LPS (100 ng/ml, 4 h). (f) Kaplan-Meier representation of wild type (top) or P2rx7^−/− (bottom) mice survival after sham operation (dotted line), or CLP operation (continuous line); some mice groups were i.p. injected with ATP (0.5 mg/g) 30 min before operation (dashed lines). Wild type CLP n=10, CLP+ATP n=8, sham n=4, sham+ATP n=4; P2rx7^−/− CLP n=4, CLP+ATP n=6, sham n=3. (g) IL-1β from peritoneal lavage (left) or bacterial load in blood (right) from wild type sham, CLP or CLP+ATP mice after 24 h. Each dot represents a single independent experiment (c,d), a sample from an individual healthy donor (a,b,e) or a single mouse (g); average±standard error is represented in panels a-e,g; *p<0.05; **p<0.01; ns, no significant difference (p>0.05); Mann-Whitney test was used for a,b,d,e; Kruskal-Wallis test was used for c; Long-rank test for f.
(§1) FIG. 7. Mitochondrial dysfunction mediates P2X7 receptor induced NLRP3 inflammasome impairment. (a) Mitochondrial membrane depolarization in BMDMs treated with ATP (3 mM, 30 min), then washed out and incubated for the indicated times in the absence or presence of LPS (1 μg/ml) as indicated. […] (e) Representative histogram plot of HIF-1α staining (left) or quantification of HIF-1α mean intensity fluorescence increase (ΔMFI, right) in monocytes isolated from healthy donor blood samples and treated or not with ATP (1 mM, 30 min) in the presence or absence of AZ11645373 (10 μM) or PDTC (10 μM), and then washed and cultured for 2 h; non-stained monocytes (light grey, left). […] (g) Expression of HIF1A gene analyzed by quantitative PCR from control surgery group and septic patients PBMCs; septic patients are separated into NLRP3 non-immunocompromised (grey bar) and immunocompromised (black bar). […]

HIF-1α = HIF-1α staining in human monocytes by flow cytometry; type: cell-based; conditions: ATP 1 mM 30 min; for HIF-1α expression by the agent itself: washed, cultured 2 h (FIG. 7e); for HIF-1α expression induced by ATP treatment: AZ11645373 10 μM or PDTC 10 μM (FIG. 7e)
Description: Human peripheral blood mononuclear cells (PBMCs) were isolated from blood within one hour after extraction using Ficoll histopaque 1077 (Sigma-Aldrich). […] Cells were treated with ATP (Sigma-Aldrich), antimycin A (Sigma-Aldrich) or FCCP (Sigma-Aldrich) in the presence or absence of PDTC (Sigma-Aldrich) or echinomycin (Sigma-Aldrich) in E-total buffer (147 mM NaCl, 10 mM HEPES, 13 mM glucose, 2 mM CaCl2), 1 mM MgCl2, and 2 mM KCl) and then washed and stimulated with E. coli LPS O55:B5 in their respective complete media. […] After LPS treatment, cells were incubated with P2X7 modulating nanobodies, the specific P2X7 receptor antagonist A438079 or AZ11645373 (Tocris), and then subsequently stimulated with ATP or nigericin (Sigma-Aldrich) in E-total buffer. Times and concentrations for the reagents used are specified in the figure legends.
HIF-1α expression was detected in CD14^+ monocytes using Alexa Fluor-647 mouse anti-human HIF-1α (BD Biosciences, Clone 54) at 1:1000 dilution.

Cell death (LDH assay) = type: cell-based
Description: Presence of LDH in cell-free supernatants was measured using the Cytotoxicity Detection kit (Roche) following the manufacturer's instructions.

Nlrp3 and Illb = test: Quantitative PCR of Nlrp3 and Il1b gene induction by LPS; type: cell-based, mouse
Description: FIG. 6. P2X7 receptor stimulation induces an impairment of the NLRP3 inflammasome in monocytes. (a-b) Percentage of monocytes with ASC-specks (a) and release of […] from PBMCs (b) isolated from healthy donor blood samples treated with ATP (3 mM, 30 min; ATP-pre), then washed and primed with or without LPS (1 μg/ml, 2 h) and then treated for 20 min with ATP (3 mM; ATP-post) or nigericin (10 μM) as indicated. (c) IL-1β release from wild type or P2rx7^−/− BMDMs treated as in a, but with 4 h LPS priming and 30 min of ATP or nigericin. (d) IL-1β release from wild type or P2rx7^−/− BMDMs treated for 30 min with antimycin A (5 μM) or FCCP (1 μM) and then washed and primed with LPS (1 μg/ml, 4 h) and then stimulated with nigericin (10 μM, 30 min) as indicated. (e) Expression of Nrlp3 and Illb genes analyzed by quantitative PCR from wild type or P2rx7^−/− BMDMs treated with ATP (3 mM, 30 min; ATP-pre), then washed and primed with or without LPS (100 ng/ml, 4 h). […]
Detailed methods used for qRT-PCR have been described in the prior art. Relative gene expression levels were calculated using the 2^−ΔCt method normalizing to Hprt1 expression as endogenous control.

BMDMs = test: ATP-induced mitochondrial membrane depolarization in BMDMs with or without antioxidant; type: cell-based, mouse; conditions: ATP 3 mM 30 min, PDTC 40 μM (FIG. 7c)
Description: as §1, with “indicated. (b) IL-1β release from wild-type BMDMs treated as in a, but after LPS priming cells were stimulated with nigericin (10 μM, 30 min). (c) Mitochondrial membrane depolarization in BMDMs treated with ATP (3 mM, 30 min) in the presence or absence pyrrolidine dithiocarbamate (PDTC, 40 μM).” for “indicated.”

NLRP3 inflammasome [2] = test: IL-1β release from PBMCs of healthy donors pre-treated with ATP, LPS-primed and stimulated with nigericin; type: cell-based; conditions: human PBMCs, ATP-pre 1 mM 30 min with PDTC 10 μM, LPS 1 μg/ml 4 h, nigericin 10 μM 30 min (FIG. 7d)
Description: as §1, with “indicated. (b) IL-1β release from wild-type BMDMs treated as in a, but after LPS priming cells were stimulated with nigericin (10 μM, 30 min). (c) Mitochondrial membrane depolarization in BMDMs treated with ATP (3 mM, 30 min) in the presence or absence pyrrolidine dithiocarbamate (PDTC, 40 μM).” for “indicated.”

Row | Compound | IL-1β release after mitochondrial depolarizing agent (NLRP3 inflammasome [1]) | HIF-1α expression by the agent itself (HIF-1α) | cell death (Cell death (LDH assay)) | HIF-1α expression induced by ATP treatment (HIF-1α) | also measured
1 | antimycin A | reduced | did not increase | did not induce cell death |  | Nlrp3 and Illb gene induction by LPS (Nlrp3 and Illb): reduced
2 | O=C1CSC(=O)N1C(CCc1ccncc1)COc1ccc(-c2cccc([N+](=O)[O-])c2)cc1 (stereo not drawn) [AZ116] |  |  |  | able to prevent it | 
3 | S=C(S)N1CCCC1 [PDTC, pyrrolidine dithiocarbamate] |  |  |  | able to prevent it | ATP-induced mitochondrial membrane depolarization (BMDMs): able to protect; production of IL-1β after ATP stimulation before LPS-priming and NLRP3 activation (NLRP3 inflammasome [2]): restored
4 | CS[C@H]1SC[C@H]2C(=O)N(C)[C@@H](C(C)C)C(=O)OC[C@@H](NC(=O)c3cnc4ccccc4n3)C(=O)N[C@@H](C)C(=O)N(C)[C@@H]1C(=O)N(C)[C@@H](C(C)C)C(=O)OC[C@@H](NC(=O)c1cnc3ccccc3n1)C(=O)N[C@@H](C)C(=O)N2C [echinomycin] |  |  |  |  | production of IL-1β after ATP stimulation before LPS-priming and NLRP3 stimulation (NLRP3 inflammasome [1]; BMDMs, ATP-pre 3 mM 30 min with echinomycin 5 nM, LPS 1 μg/ml 4 h, nigericin 10 μM 30 min (FIG. 7f)): restored
5 | N#CC(C#N)=NNc1ccc(OC(F)(F)F)cc1 [FCCP] | reduced | did not increase | did not induce cell death |  | 

Reference: patent publication US20220334127A1, “IN VITRO METHOD FOR OBTAINING CLINICAL DATA IN PATIENTS SUFFERING FROM AN INFLAMMATORY DISEASE” (FUNDACIÓN PARA LA FORMACIÓN E INVESTIGACIÓN SANITARIAS DE …, priority 2019, published 2022)
